According to patent US12091426B2, “Bifunctional degraders of hematopoietic progenitor kinase and therapeutic uses thereof” (Nurix Therapeutics, Inc., priority 2021, dated 2024):

Molecular target: T1, HPK1 (Homo sapiens, UniProt Q92918)
T1 construct: A HiBiT tag was introduced by CRISPR on the N terminus of HPK1 in Jurkat cells; host or cells: Jurkat cells (ATCC TIB-152), monoclonal line with CRISPR knock-in of HiBiT at the endogenous HPK1 locus
Assay: HPK1 Cellular HiBit Degradation Assay
Assay type: cell-based
Conditions: HiBiT HPK1 Jurkat cells, 24 hrs; for DC50: concentration at which 50% of HPK1 was remaining, read-out: DC50 Category; for Dmax: Jurkat, maximum degradation vs DMSO vehicle control, read-out: Dmax Category
Experimental: HPK1 Cellular HiBit Degradation Assay
A HiBiT tag was introduced by CRISPR on the N terminus of HPK1 in Jurkat cells (ATCC® TIB-152) to allow quantitation of HPK1 protein levels in a monoclonal human cell line. Cells were plated at 1×10^6 cells/mL, 30 uL/well (3×10^4 cells/well) in complete RPMI 1640 (10% heat inactivated FBS, 1% L-glutamine) in 384-well assay plates (Corning, cat. no. 3570). HPK1 chimeric targeting molecules (CTMs) were added in an 11 point dilution series (11-point, 3.16-fold) with a final assay concentration range of 10 uM to 0.1 nM. The parental Jurkat cell line, with no HiBiT insertion, was included in the assay as a background control. Cell treated with a DMSO vehicle control was used to determine the maximum signal defining 100% HPK1 in the cell. Cells were incubated for 24 hrs at 37° C./5% CO2. Following incubation, 30 uL of complete Nano-Glo HiBiT Lytic Detection Reagent (Promega cat. no. N3040) was added. Cells were incubated for 10 min at room temperature and luminescence was read on an EnVision plate reader (Perkin Elmer, 0.1 sec per well). Viability was assessed in the same plate using Cell Titer Fluor (Promega) and read on an EnVision plate reader to ensure results were not the effect of cytotoxicity. Percent HPK1 remaining per sample was calculated as follows:
[formula] % HPK1 remaining values were plotted as a function of compound concentration and curves were fit using the Prism (GraphPad) equation “log(inhibitor) vs response−Variable slope (four parameters)”. Dmax values were calculated by identifying the lowest % remaining and subtracting from 100. DC50 values were determined by extrapolating from the curve the concentration at which 50% of HPK1 was remaining based on the DMSO control.
HiBiT HPK1 Jurkat cell lines were used to evaluate the total protein levels of HPK1 in a robust human cellular high throughput format. The level of HPK1 remaining following treatment with HPK1 CTMs is reported as Dmax (maximum degradation) achieved at 24 hours when compared to vehicle treated controls. […] These decreases were not a result of cytotoxicity measured by a viability assessment.

T1 sequence (Q92918 whole entry): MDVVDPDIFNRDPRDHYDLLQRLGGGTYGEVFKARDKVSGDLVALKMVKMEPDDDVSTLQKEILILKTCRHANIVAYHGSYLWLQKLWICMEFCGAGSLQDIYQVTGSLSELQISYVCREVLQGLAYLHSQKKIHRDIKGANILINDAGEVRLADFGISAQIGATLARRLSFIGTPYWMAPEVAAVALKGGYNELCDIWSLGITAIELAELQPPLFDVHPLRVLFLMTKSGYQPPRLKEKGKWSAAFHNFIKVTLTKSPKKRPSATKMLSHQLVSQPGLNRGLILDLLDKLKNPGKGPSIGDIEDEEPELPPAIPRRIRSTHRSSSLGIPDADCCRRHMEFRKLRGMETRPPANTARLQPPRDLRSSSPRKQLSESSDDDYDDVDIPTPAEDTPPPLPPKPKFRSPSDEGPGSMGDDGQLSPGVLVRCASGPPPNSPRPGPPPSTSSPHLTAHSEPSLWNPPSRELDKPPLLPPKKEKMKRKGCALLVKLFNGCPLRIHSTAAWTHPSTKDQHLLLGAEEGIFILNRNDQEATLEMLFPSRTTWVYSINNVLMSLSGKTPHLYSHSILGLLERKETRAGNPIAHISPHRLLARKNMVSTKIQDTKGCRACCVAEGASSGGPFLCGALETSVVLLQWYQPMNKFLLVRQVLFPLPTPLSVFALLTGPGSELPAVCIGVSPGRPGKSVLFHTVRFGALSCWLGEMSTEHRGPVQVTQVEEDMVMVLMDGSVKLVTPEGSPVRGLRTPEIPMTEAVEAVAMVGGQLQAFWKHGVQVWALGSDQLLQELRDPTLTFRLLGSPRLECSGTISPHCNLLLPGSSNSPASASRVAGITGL

Compound	DC50 [nM]	Dmax [%]
CC(C)n1cnc2cc(-c3ccc4c(c3)N([C@H]3C[C@@H](N5CCCCC5)C3)C(=O)C43CCN(C(=O)CN4CCC(OCC#Cc5cccc6c5n(C)c(=O)n6C5CCC(=O)NC5=O)CC4)CC3)nc(NC3CC3)c21 (mixture of isomers) [Example 229, (3RS)-3-[4-(3-{[1-(2-{6-[4-(cyclopropylamino)-3-(propan-2-yl)-3H-imidazo[4,5-c]pyridin-6-yl]-2-oxo-1-[(1S,3S)-3-(piperidin-1-yl)cyclobutyl]-1,2-dihydrospiro[indole-3,4′-piperidin]-1′-yl}-2-oxoethyl)piperidin-4-yl]oxy}prop-1-yn-1-yl)-3-methyl-2-oxo-2,3-dihydro-1H-1,3-benzodiazol-1-yl]piperidine-2,6-dione]	< 100	70 to 85
CC(C)n1cnc2cc(-c3ccc4c(c3)N([C@H]3C[C@@H](N5CCCCC5)C3)C(=O)C43CCN(C(=O)C4(C)CCN(C(=O)C5CCN(c6ccc(N7CCC(=O)NC7=O)cn6)CC5)CC4)CC3)nc(Nc3ccccc3F)c21 [Example 116, 1-[6-(4-{4-[(6-{4-[(2-fluorophenyl)amino]-3-(propan-2-yl)-3H-imidazo[4,5-c]pyridin-6-yl}-2-oxo-1-[(1S,3S)-3-(piperidin-1-yl)cyclobutyl]-1,2-dihydrospiro[indole-3,4′-piperidin]-1′-yl)carbonyl]-4-methylpiperidine-1-carbonyl}piperidin-1-yl)pyridin-3-yl]-1,3-diazinane-2,4-dione]	< 100	> 85
Cc1cc(F)c(Nc2nc(-c3ccc4c(c3)N([C@H]3C[C@@H](N5CCCCC5)C3)C(=O)C43CCN(C(=O)C4CCN(CC5CCN(c6cccc7c6n(C)c(=O)n7C6CCC(=O)NC6=O)CC5)CC4)CC3)cc3ncn(C(C)C)c23)cc1C(=O)NC(C)C (mixture of isomers) [Example 142, 5-{[6-(1′-{1-[(1-{1-[(3RS)-2,6-dioxopiperidin-3-yl]-3-methyl-2-oxo-2,3-dihydro-1H-1,3-benzodiazol-4-yl}piperidin-4-yl)methyl]piperidine-4-carbonyl}-2-oxo-1-[(1S,3S)-3-(piperidin-1-yl)cyclobutyl]-1,2-dihydrospiro[indole-3,4′-piperidin]-6-yl)-3-(propan-2-yl)-3H-imidazo[4,5-c]pyridin-4-yl]amino}-4-fluoro-2-methyl-N-(propan-2-yl)benzamide]	500 to 1000	70 to 85
CC(C)n1cnc2cc(-c3ccc4c(c3)N([C@H]3C[C@@H](N5CCCCC5)C3)C(=O)C43CCN(C(=O)[C@@H]4CCN(C(=O)C5CCN(c6ccc(N7CCC(=O)NC7=O)cc6)CC5)C4)CC3)nc(NC3CC3)c21 [Example 233, 1-(4-{4-[(3R)-3-({6-[4-(cyclopropylamino)-3-(propan-2-yl)-3H-imidazo[4,5-c]pyridin-6-yl]-2-oxo-1-[(1S,3S)-3-(piperidin-1-yl)cyclobutyl]-1,2-dihydrospiro[indole-3,4′-piperidin]-1′-yl}carbonyl)pyrrolidine-1-carbonyl]piperidin-1-yl}phenyl)-1,3-diazinane-2,4-dione]	< 100	70 to 85
CC(C)n1cnc2cc(-c3ccc4c(c3)N([C@H]3C[C@@H](N5CCCCC5)C3)C(=O)C43CCN(C(=O)C4CCN(C(=O)C5CCN(c6ccc7c(c6)C(=O)N(C6CCC(=O)NC6=O)C7=O)CC5)CC4)CC3)nc(NC3CC3)c21 (mixture of isomers) [Example 86, 5-{4-[4-({6-[4-(cyclopropylamino)-3-(propan-2-yl)-3H-imidazo[4,5-c]pyridin-6-yl]-2-oxo-1-[(1S,3S)-3-(piperidin-1-yl)cyclobutyl]-1,2-dihydrospiro[indole-3,4′-piperidin]-1′-yl}carbonyl)piperidine-1-carbonyl]piperidin-1-yl}-2-[(3RS)-2,6-dioxopiperidin-3-yl]-2,3-dihydro-1H-isoindole-1,3-dione]	100 to 500	70 to 85
COC1CN(C(=O)C2CCN(c3ccc(C4CCC(=O)NC4=O)cc3)CC2)CCC1C(=O)N1CCC2(CC1)C(=O)N([C@H]1C[C@@H](N3CCCCC3)C1)c1cc(-c3cc4ncn(C(C)C)c4c(NC4CC4)n3)ccc12 (mixture of isomers) [Example 257, (3RS)-3-(4-{4-[4-({6-[4-(cyclopropylamino)-3-(propan-2-yl)-3H-imidazo[4,5-c]pyridin-6-yl]-2-oxo-1-[(1S,3S)-3-(piperidin-1-yl)cyclobutyl]-1,2-dihydrospiro[indole-3,4′-piperidin]-1′-yl}carbonyl)-3-methoxypiperidine-1-carbonyl]piperidin-1-yl}phenyl)piperidine-2,6-dione]	< 100	50 to 70
CC(C)n1cnc2cc(-c3ccc4c(c3)N([C@H]3C[C@@H](N5CCCCC5)C3)C(=O)C43CCN(C(=O)C4CC45CCN(C(=O)C4CCN(c6ccc(C7CCC(=O)NC7=O)cn6)CC4)C5)CC3)nc(NC3CC3)c21 (mixture of isomers) [Example 303, (3RS)-3-(6-{4-[1-({6-[4-(cyclopropylamino)-3-(propan-2-yl)-3H-imidazo[4,5-c]pyridin-6-yl]-2-oxo-1-[(1S,3S)-3-(piperidin-1-yl)cyclobutyl]-1,2-dihydrospiro[indole-3,4′-piperidin]-1′-yl}carbonyl)-5-azaspiro[2.4]heptane-5-carbonyl]piperidin-1-yl}pyridin-3-yl)piperidine-2,6-dione]	500 to 1000	50 to 70

Results, then the compound that gave them:

DC50 [nM]	Dmax [%]	Compound
100 to 500	70 to 85	CC(C)n1cnc2cc(-c3ccc4c(c3)N([C@H]3C[C@@H](N5CCCCC5)C3)C(=O)C43CCN(C(=O)[C@@H]4CCN(C(=O)[C@H]5CC[C@H](Nc6ccc(C7CCC(=O)NC7=O)cn6)CC5)C4)CC3)nc(Nc3ccccc3F)c21 (mixture of isomers) [Example 6, (3RS)-3-(6-{1[(1R,4R)-4-[(3R)-3-[(6-{4-[(2-fluorophenyl)amino]-3-(propan-2-yl)-3H-imidazo[4,5-c]pyridin-6-yl}-2-oxo-1-[(1S,3S)-3-(piperidin-1-yl)cyclobutyl]-1,2-dihydrospiro[indole-3,4′-piperidin]-1′-yl)carbonyl]pyrrolidine-1-carbonyl]cyclohexyl]amino}pyridin-3-yl)piperidine-2,6-dione]
500 to 1000	> 85	CC(C)n1cnc2cc(-c3ccc4c(c3)N([C@H]3C[C@@H](N5CCCCC5)C3)C(=O)C43CCN(C(=O)C4CCN(CCC5CCN(c6ccc(C7CCC(=O)NC7=O)cn6)CC5)CC4)CC3)nc(Nc3ccccc3F)c21 (mixture of isomers) [Example 98, (3RS)-3-{6-[4-(2-{4-[(6-{4-[(2-fluorophenyl)amino]-3-(propan-2-yl)-3H-imidazo[4,5-c]pyridin-6-yl}-2-oxo-1-[(1S,3S)-3-(piperidin-1-yl)cyclobutyl]-1,2-dihydrospiro[indole-3,4′-piperidin]-1′-yl)carbonyl]piperidin-1-yl}ethyl)piperidin-1-yl]pyridin-3-yl}piperidine-2,6-dione]
< 100	70 to 85	CC(C)n1cnc2cc(-c3ccc4c(c3)N([C@H]3C[C@@H](N5CCCCC5)C3)C(=O)C43CCN(C(=O)[C@H]4CC[C@H](C(=O)N5CCC(N(C)c6ccc(C7CCC(=O)NC7=O)cn6)CC5)CC4)CC3)nc(Nc3ccncc3F)c21 (mixture of isomers) [Example 139, (3RS)-3-{6-[methyl({1-[(1R,4R)-4-[(6-{4-[(3-Fluoropyridin-4-yl)amino]-3-(propan-2-yl)-3H-imidazo[4,5-c]pyridin-6-yl}-2-oxo-1-[(1S,3S)-3-(piperidin-1-yl)cyclobutyl]-1,2-dihydrospiro[indole-3,4′-piperidin]-1′-yl)carbonyl]cyclohexanecarbonyl]piperidin-4-yl})amino]pyridin-3-yl}piperidine-2,6-dione]
< 100	70 to 85	CC(C)n1cnc2cc(-c3ccc4c(c3)N([C@H]3C[C@@H](N5CCCCC5)C3)C(=O)C43CCN(C(=O)C4(C)CCN(C(=O)C5CCN(c6ccc(C7CCC(=O)NC7=O)nc6)CC5)CC4)CC3)nc(Nc3ccncc3F)c21 (mixture of isomers) [Example 120, (3RS)-3-[5-(4-{4-[(6-{4-[(3-fluoropyridin-4-yl)amino]-3-(propan-2-yl)-3H-imidazo[4,5-c]pyridin-6-yl}-2-oxo-1-[(1S,3S)-3-(piperidin-1-yl)cyclobutyl]-1,2-dihydrospiro[indole-3,4′-piperidin]-1′-yl)carbonyl]-4-methylpiperidine-1-carbonyl}piperidin-1-yl)pyridin-2-yl]piperidine-2,6-dione]
